Patent US20060069132A1, “Azolecarboxamide herbicides” (priority 2004, published 2006)

Legend:
Surinam grass = assay: Test C pre-/postemergence herbicide test; format: in vivo, Urochloa decumbens; details: Urochloa decumbens, pre-emergence, 312 h, read-out: Plant response rating, Surinam Grass
Method in brief: (§1)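 Visual ratings on a 0–100 scale (100 = complete control) made versus untreated controls after 12 to 14 greenhouse days. Test chemicals, formulated in surfactant-containing non-phytotoxic solvent, applied preemergence to planted seeds or postemergence to 1- to 4-leaf plants (2 to 18 cm).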

cocklebur = assay: Test C pre-/postemergence herbicide test; format: in vivo, Xanthium strumarium; details: Xanthium strumarium, pre-emergence, 312 h, read-out: Plant response rating, Cocklebur
Method in brief: as §1

giant foxtail = assay: Test C pre-/postemergence herbicide test; format: in vivo, Setaria faberi; details: Setaria faberi, pre-emergence, 312 h, read-out: Plant response rating, Foxtail, Giant
Method in brief: as §1

johnsongrass = assay: Test C pre-/postemergence herbicide test; format: in vivo, Sorghum halepense; details: Sorghum halepense, pre-emergence, read-out: Plant response rating, Johnsongrass
Method in brief: as §1

morningglory = assay: Test C pre-/postemergence herbicide test; format: in vivo, Ipomoea coccinea; details: Ipomoea, pre-emergence, read-out: Plant response rating, Morningglory
Method in brief: as §1

eastern black nightshade = assay: Test C pre-/postemergence herbicide test; format: in vivo, Solanum ptycanthum; details: pre-emergence, read-out: Plant response rating, Nightshade
Method in brief: as §1

yellow nutsedge = assay: Test C pre-/postemergence herbicide test; format: in vivo, Cyperus esculentus; details: Cyperus, pre-emergence, read-out: Plant response rating, Nutsedge, Yellow
Method in brief: as §1

ducksalad = assay: Test C flooded paddy test; format: in vivo, Heteranthera limosa; details: Heteranthera limosa
barnyardgrass = assay: Test C flooded paddy test; format: in vivo, Echinochloa crus-galli; details: Echinochloa crus-galli
Method in brief: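 Visual rating, 0 (no effect) to 100 (complete control), vs. controls at 12–14 d in greenhouse. Postemergence: 1–4-leaf plants, 2–18 cm. Paddy: flooded, barnyardgrass at 2-leaf stage.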

[1] = 62 g ai/ha, preemergence, scale 0 to 100
[2] = 500 g ai/ha, scale 0 to 100 (0 no effect, 100 complete control), visual, 12 to 14 days
[3] = 125 g ai/ha, scale 0 (no effect) to 100 (complete control), visual, 12 to 14 days

Work on CCNC(=O)c1ccc(F)c(NC(=O)C2CN(C(C)(C)C)N=C2CC)c1 (centres unmarked) [Compound 336, 1-(1,1-dimethylethyl)-3-ethyl-N-[5-[(ethylamino)carbonyl]-2-fluorophenyl]-4,5-dihydro-1H-pyrazole-4-carboxamide] yielded a pest or weed control at 62 g/ha (Surinam grass; [1]) of 50%, a pest or weed control at 250 g/ha (Surinam grass; 250 g ai/ha, scale 0-100) of 100% and a pest or weed control at 500 g/ha (Surinam grass; [2]) of 100%. For the same compound, the pest or weed control at 62 g/ha (cocklebur; [1]) was 0%, the pest or weed control at 125 g/ha (cocklebur; [3]) was 5% and the pest or weed control at 250 g/ha (cocklebur; 250 g ai/ha, scale 0-100) was 30%. It also gave a pest or weed control at 500 g/ha (cocklebur; [2]) of 50%, a pest or weed control at 62 g/ha (giant foxtail; [1]) of 0% and a pest or weed control at 125 g/ha (giant foxtail; [3]) of 5%. For the same compound, the pest or weed control at 250 g/ha (giant foxtail; 250 g ai/ha, scale 0-100) was 90%, the pest or weed control at 500 g/ha (giant foxtail; [2]) was 90% and the pest or weed control at 62 g/ha (johnsongrass; [1]) was 80%. It also gave a pest or weed control at 125 g/ha (johnsongrass; [3]) of 95%, a pest or weed control at 250 g/ha (johnsongrass; 250 g ai/ha, scale 0-100) of 100% and a pest or weed control at 500 g/ha (johnsongrass; [2]) of 100%. It also gave a pest or weed control at 62 g/ha (morningglory; [1]) of 5%, a pest or weed control at 125 g/ha (morningglory; [3]) of 70% and a pest or weed control at 250 g/ha (morningglory; 250 g ai/ha, scale 0-100) of 100%. It also gave a pest or weed control at 500 g/ha (morningglory; [2]) of 100%, a pest or weed control at 62 g/ha (eastern black nightshade; [1]) of 85% and a pest or weed control at 125 g/ha (eastern black nightshade; [3]) of 95%. It also gave a pest or weed control at 250 g/ha (eastern black nightshade; 250 g ai/ha, scale 0-100) of 100%, a pest or weed control at 500 g/ha (eastern black nightshade; [2]) of 100% and a pest or weed control at 62 g/ha (yellow nutsedge; [1]) of 0%. It also gave a pest or weed control at 125 g/ha (yellow nutsedge; [3]) of 5%, a pest or weed control at 250 g/ha (yellow nutsedge; 250 g ai/ha, scale 0-100) of 20% and a pest or weed control at 500 g/ha (yellow nutsedge; [2]) of 60%. The pest or weed control at 62 g/ha (ducksalad; 62 g ai/ha, scale 0 to 100, read-out: Ducksalad plant response rating) was 45%, the pest or weed control at 125 g/ha (ducksalad; 125 g ai/ha, scale 0 to 100 (0 no effect, 100 complete control), read-out: Ducksalad plant response rating) was 55% and the pest or weed control at 250 g/ha (ducksalad; 250 g ai/ha, scale of 0 to 100, 0 is no effect, 100 is complete control, read-out: Ducksalad plant response rating) was 75%. For the same compound, the pest or weed control at 500 g/ha (ducksalad; 500 g ai/ha, visual rating after 12 to 14 days, scale 0 to 100 (0 no effect, 100 complete control), read-out: Plant response rating, Ducksalad) was 90%, the pest or weed control at 62 g/ha (barnyardgrass; 62 g ai/ha, scale 0 to 100 (0 no effect, 100 complete control), read-out: Barnyardgrass plant response rating) was 0% and the pest or weed control at 125 g/ha (barnyardgrass; 125 g ai/ha, scale 0 to 100 (0 no effect, 100 complete control), read-out: Barnyardgrass plant response rating) was 0%. The pest or weed control at 250 g/ha (barnyardgrass; 250 g ai/ha, scale of 0 to 100, 0 is no effect, 100 is complete control, read-out: Barnyardgrass plant response rating) was 60% and the pest or weed control at 500 g/ha (barnyardgrass; 500 g ai/ha, visual rating after 12 to 14 days, scale 0 to 100 (0 no effect, 100 complete control), read-out: Plant response rating, Barnyardgrass) was 80%.
